Measurements published in ChEMBL document CHEMBL4177607, “Antibacterial constituents of the plant family Amaryllidaceae” (2017).
In brackets after ≈: the same amount, converted by molar mass.

Tests used:
Assay type in all cases: functional
[1] = test system: Shigella flexneri; test: Antibacterial activity against Shigella flexneri after 24 hrs by broth microdilution method
[2] = test system: Pseudomonas aeruginosa; test: Antibacterial activity against Pseudomonas aeruginosa after 24 hrs by broth microdilution method
[3] = test system: Escherichia coli; test: Antibacterial activity against Escherichia coli after 24 hrs by broth microdilution method
[4] = test system: Neisseria gonorrhoeae; test: Antibacterial activity against Neisseria gonorrhoeae
[5] = test system: Staphylococcus aureus; test: Antibacterial activity against Staphylococcus aureus incubated overnight by two-fold serial dilution method
[6] = test system: Escherichia coli; test: Antibacterial activity against Escherichia coli incubated overnight by two-fold serial dilution method
[7] = test system: Flavobacterium columnare; test: Antibacterial activity against Flavobacterium columnare ALM-00-173 after 24 hrs; conditions: ALM-00-173, 24 h
[8] = test system: Flavobacterium columnare; test: Antibacterial activity against Flavobacterium columnare BioMed after 24 hrs
[9] = test system: Staphylococcus aureus; test: Antibacterial activity against Staphylococcus aureus
[10] = test system: Edwardsiella ictaluri; test: Antibacterial activity against Edwardsiella ictaluri after 24 hrs
[11] = test system: Rhodococcus fascians; test: Antibacterial activity against Corynebacterium fascians assessed as diameter of inhibition zone at 10 mM after 48 to 72 hrs by paper disc method; conditions: Rhodococcoides fascians; read-out: DIZ
[12] = test system: Escherichia coli; test: Antibacterial activity against Escherichia coli assessed as diameter of inhibition zone at 1 mg/ml; conditions: read-out: DIZ
[13] = test system: Staphylococcus aureus; test: Antibacterial activity against Staphylococcus aureus assessed as diameter of inhibition zone at 1 mg/ml; conditions: read-out: DIZ
[14] = test system: Escherichia coli; test: Antibacterial activity against Escherichia coli

`CCCCCCCCCCCC(=O)Oc1ccc([C@@H]2CC(=O)c3c(O)c(C)c(O)c(C)c3O2)cc1` was tested, and the MIC [1] was 8 µg/mL (≈ 16.6 µM), the MIC [2] was 16 µg/mL (≈ 33.2 µM) and the MIC [3] was 8 µg/mL (≈ 16.6 µM).
In the case of `O=C1N[C@H]2[C@H](O)[C@H](O)[C@@H](O)C[C@@H]2c2cc3c(c(O)c21)OCO3`, the MIC [1] is reported as 4 µg/mL (≈ 12.9 µM), the MIC [2] is reported as 16 µg/mL (≈ 51.7 µM) and the MIC [3] is reported as 4 µg/mL (≈ 12.9 µM).
`CCCCCCCC(=O)Oc1ccc([C@@H]2CC(=O)c3c(O)c(C)c(O)c(C)c3O2)cc1` showed an MIC [1] of 64 µg/mL (≈ 150 µM), an MIC [2] of 16 µg/mL (≈ 37.5 µM) and an MIC [3] of 32 µg/mL (≈ 75 µM).
With `O=C(O[C@H]1[C@@H](O)[C@@H](O)[C@@H]2NC(=O)c3c(cc4c(c3O)OCO4)[C@@]2(O)[C@@H]1O)c1ccccc1` the MIC [4] was 32 to 64 µg/mL (≈ 71.8 to 144 µM).
Compound `CN(C)[C@@H]1C(O)=C(C(N)=O)C(=O)[C@@]2(O)C(O)=C3C(=O)c4c(O)cccc4[C@@](C)(O)[C@H]3C[C@@H]12` [TETRACYCLINE] has an MIC [5] of 0.5 µg/mL (≈ 1.13 µM) and an MIC [6] of 2 µg/mL (≈ 4.5 µM).
In the case of `CC(=O)O[C@H]1[C@H]2c3cc4c(cc3CN3CCC(=C[C@@H]1OC(C)=O)[C@H]23)OCO4.Cl`, the MIC [7] is reported as 40.7 µg/mL and the MIC [8] is reported as 40.7 µg/mL.
`COc1c(C)c(O)c2c(=O)cc(-c3ccc(O)cc3)oc2c1C` [SIDEROXYLIN] showed an MIC [1] of 8 µg/mL (≈ 25.6 µM), an MIC [2] of 64 µg/mL (≈ 205 µM) and an MIC [3] of 32 µg/mL (≈ 102 µM).
Work on `Cc1ccc(C(=O)Oc2ccc([C@@H]3CC(=O)c4c(O)c(C)c(OC(=O)c5ccc(C)cc5)c(C)c4O3)cc2)cc1` yielded an MIC [1] of 8 µg/mL (≈ 14.9 µM), an MIC [2] of 16 µg/mL (≈ 29.8 µM) and an MIC [3] of 8 µg/mL (≈ 14.9 µM).
`Cc1ccccc1NC(=O)O[C@H]1[C@H]2c3cc4c(cc3CN3CCC(=C[C@@H]1OC(=O)Nc1ccccc1C)[C@H]23)OCO4` was tested, and the MIC [7] was 5.5 µg/mL and the MIC [8] was 5.5 µg/mL.
In the case of `CC(=O)O[C@H]1[C@H]2c3cc4c(cc3CN3CC[C@H](C[C@@H]1OC(C)=O)[C@H]23)OCO4`, the MIC [7] is reported as > 37 µg/mL, the MIC [8] is reported as > 37 µg/mL and the MIC [9] is reported as > 37 µg/mL. For the same compound, the MIC [10] was > 37 µg/mL.
Work on `c1cc2c3c(c1)-c1cc4c(cc1CN3CC2)OCO4` [ANHYDROLYCORINE] yielded a zone of inhibition at 10000 µM [11] of 25 mm.
With `COC1C=C[C@@]23CCN(Cc4cc5c(cc42)OCO5)[C@@H]3C1` (stereo not given in full) the MIC [5] was 1020 µg/mL (≈ 3590 µM) and the MIC [6] was 1020 µg/mL (≈ 3590 µM).
With `CCCC(=O)Oc1ccc([C@@H]2CC(=O)c3c(O)c(C)c(OC(=O)CCC)c(C)c3O2)cc1` the MIC [1] was 2 µg/mL (≈ 4.54 µM), the MIC [2] was 4 µg/mL (≈ 9.08 µM) and the MIC [3] was 2 µg/mL (≈ 4.54 µM).
With `C[N+]12CCC3=C[C@H](OC(=O)c4ccccc4Cl)[C@@H](OC(=O)c4ccccc4Cl)[C@@H](c4cc5c(cc4C1)OCO5)[C@@H]32.[I-]` (stereo not given in full) the MIC [7] was > 70 µg/mL and the MIC [8] was > 70 µg/mL.
`COc1cc2c(cc1OC)[C@@H](O)O[C@@H]1CC=C3CCN(C)[C@H]3[C@H]21` showed a zone of inhibition at 1000 µg/mL [12] of 15 mm and a zone of inhibition at 1000 µg/mL [13] of 14 mm.
`[O-]c1ccc2c3c1c1cc4c(cc1c[n+]3CC2)OCO4` showed an MIC [7] of 10 µM and an MIC [8] of 100 µM.
Work on `O[C@H]1[C@H]2c3cc4c(cc3CN3CCC(=C[C@@H]1O)[C@H]23)OCO4` [LYCORINE] yielded a zone of inhibition at 1000 µg/mL [12] of 13 to 25 mm, a zone of inhibition at 1000 µg/mL [13] of 15 to 28 mm and a zone of inhibition at 10000 µM [11] of 0 mm. The MIC [7] was 100 µM, the MIC [8] was 100 µM and the MIC [9] was > 287 µg/mL. For the same compound, the MIC [10] was > 287 µg/mL.
`Cc1ccccc1NC(=O)O[C@H]1C=C2CCN3Cc4cc5c(cc4[C@H]([C@@H]1O)[C@@H]23)OCO5` gave an MIC [7] of 23.2 µg/mL and an MIC [8] of 42.1 µg/mL.
`CCCC(=O)Oc1ccc([C@@H]2CC(=O)c3c(O)c(C)c(O)c(C)c3O2)cc1` gave an MIC [1] of 2 µg/mL (≈ 5.4 µM), an MIC [2] of 8 µg/mL (≈ 21.6 µM) and an MIC [3] of 4 µg/mL (≈ 10.8 µM).
`CC(=O)Oc1c2c(cc3c1C(=O)N[C@@H]1C3=C[C@H](OC(C)=O)[C@@H](OC(C)=O)[C@H]1OC(C)=O)OCO2` gave an MIC [4] of 32 to 64 µg/mL (≈ 67.3 to 135 µM).
With `O[C@@H]1CC=C2CCN3Cc4cc5c(cc4[C@H]1[C@@H]23)OCO5` [CARANINE] the MIC [14] was 2050 µg/mL (≈ 7550 µM).
With `CC1(C)O[C@@H]2[C@H]3OS(=O)(=O)O[C@H]3[C@]3(O)c4cc5c(c(O)c4C(=O)N[C@H]3[C@@H]2O1)OCO5` the MIC [4] was 32 to 64 µg/mL (≈ 72.2 to 144 µM).
`Cc1ccccc1C(=O)O[C@H]1C=C2CCN3Cc4cc5c(cc4[C@H]([C@@H]1O)[C@@H]23)OCO5` was tested, and the MIC [7] was 46.4 µg/mL and the MIC [8] was 22.9 µg/mL.
`Cc1c(O)c(C)c2c(c1O)C(=O)C[C@@H](c1ccc(O)cc1)O2` [FARREROL] showed an MIC [1] of 2 µg/mL (≈ 6.66 µM), an MIC [2] of 8 µg/mL (≈ 26.6 µM) and an MIC [3] of 4 µg/mL (≈ 13.3 µM).
`O=c1c2cc3c(cc2c2cccc4c2n1CC4)OCO3` showed a zone of inhibition at 10000 µM [11] of 25 mm, an MIC [7] of 10 µM and an MIC [8] of 100 µM.
`Cc1cccc(C(=O)O[C@H]2[C@H]3c4cc5c(cc4CN4CCC(=C[C@@H]2OC(=O)c2cccc(C)c2C)[C@H]34)OCO5)c1C` was tested, and the MIC [7] was 30.4 µg/mL and the MIC [8] was 55.2 µg/mL.
With `Cc1ccccc1C(=O)O[C@H]1[C@H]2c3cc4c(cc3CN3CCC(=C[C@@H]1OC(=O)c1ccccc1C)[C@H]23)OCO4` the MIC [7] was 4.1 µg/mL and the MIC [8] was 4.1 µg/mL.
